Assay results: patent publication US20180087027A1, “METHOD FOR […] OF HUMAN MESENCHYMAL STEM CELLS” (SEOUL NATIONAL UNIVERSITY HOSPITAL, priority 2015, published 2018)

Columns and labels:
Type in all cases: cell-based
[1] = system: Oct4 protein in human MSCs; experiment: Western blotting of Oct4 protein expression in human MSCs treated with ET-1
Experimental: To determine a level of expression of an Oct4 protein in human MSCs when the human MSCs were treated with ET-1, human MSCs purchased from Lonza were treated with an increasing concentration (0, 0.0125, 0.025, 0.125, and 0.25 μg/mL) of ET-1, and a level of protein expression was determined through western blotting.

[2] = system: human MSCs; experiment: G-banding karyotype analysis of chromosomal stability in human MSCs treated with ET-1; details: human MSCs treated with ET-1 as in Example 2, FIG. 4
Experimental: For this purpose, the G-banding karyotype analysis method known as a basic test method for evaluating genomic stability was performed. The G-banding karyotype analysis method is a method of pre-treating stem cells with trypsin, which is a proteolytic enzyme, and staining chromosomes with a Giemsa stain. In this case, euchromatin is stained with a light color, and heterochromatin is stained with a dark color. The G-banding karyotype analysis method is the test method most often used for chromosomal analysis because many staining bands are generated.

[3] = system: human MSCs; experiment: Real time gDNA PCR comparing length of telomeres in human MSCs treated with ET-1; details: 0.025 μg/mL ET-1, medium replaced after 24 hours, gDNA collected after 3 days; FIG. 3
Experimental: To check a change in a length of telomeres in human MSCs when the human MSCs were treated or were not treated with ET-1, the human MSCs were prepared so that the cells reached a confluency of 60% on a 60 mm plate. Before the human MSCs were treated with ET-1, a culture broth was replaced with a fresh culture broth. Thereafter, the human MSCs were treated with 0.025 μg/mL of ET-1, and the medium was replaced with a fresh culture broth after 24 hours. After 3 days, gDNA samples were collected. Then, real time gDNA PCR was performed using the samples to compare the lengths of the telomeres by means of ET-1 treatment.

[4] = system: Oct4 mRNA in human MSCs; experiment: Real time PCR of Oct4 mRNA expression in human MSCs treated with ET-1; details: RNA extracted 24 hours after ET-1 treatment, FIG. 2
Experimental: To compare levels of mRNA expression of Oct4 in human MSCs treated with ET-1, the human MSCs were treated with ET-1, and RNA was extracted therefrom after 24 hours to synthesize complementary cDNA. Thereafter, real time PCR was performed using the complementary cDNA as a template and Oct4 amplification primers set forth in the following SEQ ID NOs: 1 and 2.
SEQ ID NO: 1: 5′-gaggcaacct ggagaatttg-3′ (Oct4 forward primer)
SEQ ID NO: 2: 5′-tagcctgggg taccaaaatg-3′ (Oct4 reverse primer)

For endothelin-1 [ET-1], the “level of protein expression of Oct4 across the tested ET-1 concentrations” value ([1]; ET-1 at a concentration of 0.025 μg/mL, FIG. 1) was “highest level of protein expression”, the “level of protein expression of the stemness marker Oct4” value ([1]; human MSCs (Lonza) treated with 0, 0.0125, 0.025, 0.125 and 0.25 μg/mL ET-1, FIG. 1) was “significantly increased” and the “chromosomal stability (chromosomal dysfunction)” value [2] was “chromosomal dysfunction was not induced”. The “lengths of the telomeres versus MSCs not treated with ET-1” value [3] was “extended approximately three-fold or more” and the “mRNA expression of Oct4” value [4] was “increased”.
